{"source": "patent US11399559B2", "about": "“Nutritional products having improved lipophilic solubility and bioavailability in an easily mixable form” (ABBOTT LABORATORIES, priority 2015, dated 2022)", "origin": "cited, not measured here", "note": "Where two headings read alike, the source gives them in different places."}
{"compound": "Cc1c(C)c2c(c(C)c1O)CC[C@@](C)(CCC[C@H](C)CCC[C@H](C)CCCC(C)C)O2", "note": "[RRR-alpha-tocopherol]", "values": [{"measurement": "Biological activity relative to all-rac-alpha-tocopherol", "setting": "accepted nutritional guidelines", "value": 1.36, "unit": "times"}, {"measurement": "Biological activity relative to all-rac-alpha-tocopherol", "setting": "recent studies", "value": "about 2 times"}]}
